Results on 24 compounds are retold here after PubChem BioAssay (NCI).

Test systems include HCT-15 colon; MDA-MB-231 breast; OVCAR-3 ovarian; RXF 393 renal; NCI-H23 lung; SK-MEL-2 melanoma; NCI-H522 lung; SF-268 CNS; HOP-62 NSCLC; BT-549 breast.
Assay in all cases: NCI tumour cell line growth inhibition, 48 h

Each structure is given as a SMILES string.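 Where inhibition never reached the appropriate level, the endpoint shown equals the highest concentration tested. Otherwise, values were interpolated linearly from a five-concentration, 48-hour dose response in 96-well plates. TGI marks complete inhibition of growth.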

With `O=C(O)C(Cc1ccccc1)NCc1c(O)ccc2c(-c3ccccc3)cc(=O)oc12` (stereo unspecified), the TGI in the experiment with HCT-15 colon, in the experiment on MDA-MB-231 breast, in the experiment with OVCAR-3 ovarian, in the experiment with RXF 393 renal, in the experiment on NCI-H23 lung and with SK-MEL-2 melanoma was greater than 100 µM throughout. For the same compound, the TGI in the experiment on NCI-H522 lung, in the experiment on SF-268 CNS and in the experiment with HOP-62 NSCLC was greater than 100 µM in each case.

Regarding `Cc1ccccc1NC(=O)CSc1nnc(-c2ccc(N=Cc3ccc(Cl)cc3)cc2)o1`, the TGI with HCT-15 colon, with RXF 393 renal, in the experiment with NCI-H23 lung, in the experiment with SK-MEL-2 melanoma, in the experiment on SF-268 CNS and in the experiment on HOP-62 NSCLC was greater than 100 µM throughout.

As for `C=C(C)C1CC(=O)C(C)=C(O)C1` (stereo unspecified), the TGI with HCT-15 colon, with MDA-MB-231 breast, in the experiment on BT-549 breast, with NCI-H23 lung, in the experiment with SK-MEL-2 melanoma and in the experiment with NCI-H522 lung was greater than 100 µM throughout. For the same compound, the TGI with SF-268 CNS and in the experiment with HOP-62 NSCLC was greater than 100 µM throughout.

On to `O=c1c2cc(Br)cc(Br)c2[nH]c(=S)n1-c1ccc(N=Nc2ccc(O)c3cccnc23)cc1`, for which the TGI in the experiment with MDA-MB-231 breast was greater than 100 µM; in the experiment on OVCAR-3 ovarian, 28.5 µM; with RXF 393 renal it was greater than 100 µM; with SK-MEL-2 melanoma, greater than 100 µM; with NCI-H522 lung, 60.8 µM; in the experiment on SF-268 CNS it was 57.5 µM. Moreover, in the experiment on HOP-62 NSCLC, the TGI was greater than 100 µM.

Regarding `O=[N+]([O-])c1ccc(-n2nc3ccc4nonc4c3n2)cc1`, the TGI in the experiment on HCT-15 colon is greater than 100 µM; in the experiment on MDA-MB-231 breast, greater than 100 µM; in the experiment on OVCAR-3 ovarian, greater than 100 µM; in the experiment on BT-549 breast, 63.7 µM; with NCI-H23 lung, greater than 100 µM; in the experiment on SK-MEL-2 melanoma, greater than 100 µM. Also, the TGI is greater than 100 µM in the experiment with NCI-H522 lung, greater than 100 µM with SF-268 CNS and 44.7 µM in the experiment with HOP-62 NSCLC.

On to `COC(=O)c1c2c(cc3c1CC1(Cc4cc5c(c(C=O)c4C1)CCC5)C3)CCC2` (stereo unspecified), for which the TGI in the experiment with HCT-15 colon was greater than 100 µM; in the experiment with MDA-MB-231 breast, 91.7 µM; in the experiment on OVCAR-3 ovarian it was 99.2 µM; in the experiment on RXF 393 renal, greater than 100 µM; with NCI-H23 lung, greater than 100 µM; in the experiment on SK-MEL-2 melanoma it was 72 µM. Also, the TGI was 56.6 µM with NCI-H522 lung, greater than 100 µM in the experiment on SF-268 CNS and greater than 100 µM in the experiment on HOP-62 NSCLC.

With `Cc1cc(=O)[nH]c(NNC(C#N)c2cccc([N+](=O)[O-])c2)n1` (stereo unspecified), the TGI in the experiment with HCT-15 colon, in the experiment on OVCAR-3 ovarian, in the experiment on RXF 393 renal, in the experiment on NCI-H23 lung, in the experiment on SK-MEL-2 melanoma and in the experiment with NCI-H522 lung was greater than 100 µM each time. The TGI in the experiment on SF-268 CNS and in the experiment on HOP-62 NSCLC was greater than 100 µM in each case.

As to `CSC(SC)=C(C(=O)c1ccc(Cl)cc1)n1c(=O)sc2cc(Br)ccc21`, the TGI in the experiment on HCT-15 colon, in the experiment with MDA-MB-231 breast, in the experiment with OVCAR-3 ovarian, in the experiment with RXF 393 renal, with NCI-H23 lung and with SK-MEL-2 melanoma was greater than 100 µM in each case. In addition, the TGI in the experiment with NCI-H522 lung, in the experiment on SF-268 CNS and in the experiment with HOP-62 NSCLC was greater than 100 µM throughout.

In the case of `CN(CCCCCl)P(=O)(OCc1ccc([N+](=O)[O-])o1)OCC1OC(n2ccc(N)nc2=O)C(O)C1O` (stereo unspecified), the TGI was greater than 100 µM with HCT-15 colon; 67.3 µM in the experiment on MDA-MB-231 breast; 17.2 µM in the experiment on OVCAR-3 ovarian; 60.2 µM with RXF 393 renal; 33.1 µM in the experiment on NCI-H23 lung; 53.1 µM in the experiment on SK-MEL-2 melanoma. The TGI in the experiment on NCI-H522 lung is 24.3 µM; in the experiment with SF-268 CNS it was greater than 100 µM; in the experiment with HOP-62 NSCLC it was 66.8 µM.

`O=C1c2ccccc2-c2nc3ccncc3n21`: the TGI with HCT-15 colon, in the experiment on OVCAR-3 ovarian, in the experiment with BT-549 breast, in the experiment on RXF 393 renal, in the experiment on NCI-H23 lung and with SK-MEL-2 melanoma was greater than 100 µM throughout. In addition, the TGI with NCI-H522 lung, with SF-268 CNS and with HOP-62 NSCLC was greater than 100 µM throughout.

Regarding `FC1=C2C3CCC(C3)C2C1(F)F` (stereo unspecified), the TGI with HCT-15 colon, with MDA-MB-231 breast, in the experiment with OVCAR-3 ovarian, in the experiment with RXF 393 renal, in the experiment on NCI-H23 lung and in the experiment on SK-MEL-2 melanoma was greater than 100 µM each time. In addition, the TGI with NCI-H522 lung, with SF-268 CNS and in the experiment on HOP-62 NSCLC was greater than 100 µM each time.

As for `CCCCCC[C@H]([C@H](C)O)n1cnc2c(N)ncnc21`, the TGI with HCT-15 colon, in the experiment with MDA-MB-231 breast, with OVCAR-3 ovarian, in the experiment with RXF 393 renal, in the experiment on NCI-H23 lung and in the experiment with SK-MEL-2 melanoma was greater than 100 µM each time. For the same compound, the TGI in the experiment with SF-268 CNS and in the experiment on HOP-62 NSCLC was greater than 100 µM in each case.

Consider `CC(=O)C(=Cc1cn(C)c(=O)n(C)c1=O)C(C)=O`, for which the TGI worked out at 218 µM in the experiment on HCT-15 colon; 299 µM with OVCAR-3 ovarian; 148 µM in the experiment with RXF 393 renal; 194 µM in the experiment on NCI-H23 lung; 255 µM in the experiment on SK-MEL-2 melanoma; 67.1 µM in the experiment on NCI-H522 lung. Also, the TGI with SF-268 CNS came out at 526 µM; in the experiment with HOP-62 NSCLC, 400 µM.

In the case of `O=c1[nH]c(=O)n(COC(CO)CO)cc1-c1ccccc1`, the TGI with HCT-15 colon, with MDA-MB-231 breast, with OVCAR-3 ovarian, in the experiment with NCI-H23 lung, in the experiment with SK-MEL-2 melanoma and in the experiment with NCI-H522 lung was greater than 100 µM each time. Moreover, the TGI with SF-268 CNS and with HOP-62 NSCLC was greater than 100 µM each time.

Consider `COC1(CC[C@@H](C)COC2OC(CO)C(O)C(O)C2O)OC2C[C@H]3[C@@H]4CC[C@H]5C[C@@H](OC6OC(CO)C(OC7OC(CO)C(O)C(O)C7O)C(O)C6OC6OC(C)C(O)C(O)C6O)[C@H](O)C[C@]5(C)[C@H]4CC[C@]3(C)C2[C@@H]1C` (stereo partly specified), for which the TGI is greater than 22.8 µM in the experiment on HCT-15 colon; 3.66 µM in the experiment with MDA-MB-231 breast; 3.3 µM with OVCAR-3 ovarian; 3.85 µM in the experiment on RXF 393 renal; 3.9 µM in the experiment on SK-MEL-2 melanoma; 4.63 µM in the experiment on NCI-H522 lung. Moreover, the values for the TGI in the experiment on SF-268 CNS and in the experiment with HOP-62 NSCLC were 3.99 µM and 3.69 µM, respectively.

As to `c1cnc2c(c1)-n1cccc1C1(CCCCC1)NN2`, the TGI in the experiment on HCT-15 colon, with OVCAR-3 ovarian, in the experiment on SK-MEL-2 melanoma, in the experiment with NCI-H522 lung, in the experiment with SF-268 CNS and with HOP-62 NSCLC was greater than 100 µM throughout.

Take `CC(Nc1ccc(Cl)cc1)c1ccncc1` (stereo unspecified): the TGI in the experiment on HCT-15 colon, with OVCAR-3 ovarian, in the experiment on BT-549 breast, with RXF 393 renal, in the experiment on NCI-H23 lung and in the experiment with SK-MEL-2 melanoma was greater than 100 µM throughout. Also, the TGI in the experiment with NCI-H522 lung, in the experiment on SF-268 CNS and with HOP-62 NSCLC was greater than 100 µM throughout.

With `C/C(=C1\N=C(c2ccccc2)OC1=O)c1ccccc1`, the TGI in the experiment on HCT-15 colon, with OVCAR-3 ovarian, in the experiment on NCI-H23 lung, in the experiment with SK-MEL-2 melanoma, in the experiment on NCI-H522 lung and in the experiment on SF-268 CNS was greater than 100 µM each time. Moreover, in the experiment with HOP-62 NSCLC, the TGI is greater than 100 µM.

Regarding `N[C@@H](CCC(=O)NC(Cc1ccccc1)C(=O)NCP(=O)(O)O)C(=O)O` (stereo partly specified), the TGI in the experiment on HCT-15 colon, with MDA-MB-231 breast, with OVCAR-3 ovarian, with BT-549 breast, with NCI-H23 lung and in the experiment with SK-MEL-2 melanoma was greater than 100 µM each time. In addition, the TGI in the experiment with NCI-H522 lung and with HOP-62 NSCLC was greater than 100 µM in each case.

Take `NC(=O)CCC(N=c1c2ccccc2n(O)c2ccccc12)C(=O)O` (stereo unspecified): the TGI in the experiment on HCT-15 colon, with OVCAR-3 ovarian, in the experiment with NCI-H23 lung, with SK-MEL-2 melanoma, with NCI-H522 lung and with SF-268 CNS was greater than 100 µM each time. For the same compound, the TGI in the experiment with HOP-62 NSCLC is greater than 100 µM.

Consider `N#Cc1ccccc1NC(=O)C(=O)C(C(=O)c1ccccc1F)C1OC(=O)c2ccccc21` (stereo unspecified), for which the TGI was greater than 100 µM in the experiment on HCT-15 colon; 87.6 µM in the experiment with RXF 393 renal; greater than 100 µM in the experiment on NCI-H23 lung; 68.8 µM with SK-MEL-2 melanoma; 75.1 µM with NCI-H522 lung; greater than 100 µM in the experiment on SF-268 CNS. Further, the TGI with HOP-62 NSCLC was greater than 100 µM.

On to `COc1cc2c[n+]3c4c(c2c(OC)c1OC)CCCC4CC3` (stereo unspecified), for which the TGI with HCT-15 colon, with MDA-MB-231 breast, in the experiment with OVCAR-3 ovarian, in the experiment with RXF 393 renal, in the experiment with NCI-H23 lung and in the experiment on SK-MEL-2 melanoma was greater than 100 µM throughout. The TGI with NCI-H522 lung and with HOP-62 NSCLC was greater than 100 µM each time.

On to `O=C(O)c1c(CC(Cc2ccc3c(c2)CCC3)C(=O)O)ccc2c1CCC2` (stereo unspecified), for which the TGI in the experiment with HCT-15 colon, with MDA-MB-231 breast, with OVCAR-3 ovarian, in the experiment with BT-549 breast, in the experiment with NCI-H23 lung and in the experiment on SK-MEL-2 melanoma was greater than 100 µM throughout. Moreover, the TGI in the experiment with NCI-H522 lung and in the experiment on HOP-62 NSCLC was greater than 100 µM in each case.

For `CC(O)c1nc(C#N)c(N)o1` (stereo unspecified), the TGI in the experiment with MDA-MB-231 breast, in the experiment with OVCAR-3 ovarian, with NCI-H23 lung, with SK-MEL-2 melanoma, in the experiment on NCI-H522 lung and in the experiment with SF-268 CNS was greater than 100 µM each time. In the experiment on HOP-62 NSCLC, this compound registered a TGI greater than 100 µM.
